The subject of one experiment is O. sulcatus antenna. The experiment in a line: GC-EAD antennal response to plant headspace volatiles. Details: species or system Otiorhynchus sulcatus. The note with it: headspace of E. fortunei 'Dart's Blanket' plants and paraffin oil extract; not quantified. How it is done: (§1) Volatiles were collected from a bio-active extract of Euonymus fortunei ‘Dart's Blanket’ in paraffin oil and from cuttings of mechanically damaged and O. sulcatus-damaged E. fortunei ‘Dart's Blanket’. The antennal response to these plant odours by O. sulcatus were measured by gas chromatography coupled with electroantennogram detection (GC-EAD). Compounds giving an electrophysiological response were tentatively identified by gas chromatography coupled with mass-spectrometry (GC-MS). […] A selection of plant volatiles that gave an electrophysiological reaction on the antenna were tested as single compounds and in several mixtures of two or more compounds on bioactivity using the olfactometer developed specifically to study vine weevil behaviour (see e.g., Van Tol et al., (2002) Physiological Entomology 27, 213-222). A small selection of compounds bioactive in the lab was tested under field conditions in strawberry.
A filtered 10-ml extract of E. fortunei ‘Dart's Blanket’ in paraffin oil (Merck, Uvasol) and four O. sulcatus-damaged and four mechanically damaged 20-cm long cuttings of field-grown E. fortunei ‘Dart's Blanket’ were used for headspace collection. The extract was prepared by crushing 30 g of fresh leaves from the top 15 cm part of stems with 50 ml of paraffin oil on ice. The extract was crushed for approximately 20 min followed by immediately filtering through Whatman No. 90 (diameter 15 cm) paper filter. The filtered Euonymus extract was stored cool until use. Cuttings of Euonymus were mechanically damaged with a scissor by four incisions per leaf three hours prior to headspace collection.
The O. sulcatus-damaged Euonymus cuttings were prepared by offering 10 vine weevils 16 hrs prior to headspace collecting the cuttings. Weevils were removed and cuttings washed with deionized water prior to placing in a fresh 100 ml flask with water for headspace collection. For three days the Euonymus cuttings or a daily refreshed 10-ml paraffin oil extract of Euonymus in an open Petri-dish were placed under a glass bell jar (5 l) in a growth chamber at 20° C. and under long day (L:D=16:8 hr) light conditions. Air was purified by passage through a charcoal filter and drawn at 0.2 l min^−1 through the jar. Volatiles were entrained for a total of 69 hrs. For the collecting of volatiles, Gerstel thermodesorption tubes, filled with 80 mg Tenax TA 20/35 mesh (Grace Alltech), were used. Before use, these tubes were cleaned by rinsing them with 10 ml hexane and, subsequently, flushing them for one hour at 280° C. with 20 ml min purified nitrogen. Each Tenax tube was refreshed after approximately 8 hrs. The volatiles trapped on the Tenax were washed off with 15 ml hexane. […]

Experiment [1] deals with O. sulcatus. In words: Field experiment: attraction of weevils to odor dispensers in a strawberry field. It is filed as in vivo, Otiorhynchus sulcatus. The note with it: for number of weevils per replicate (O. sulcatus caught): total of whole season, back-transformed mean, 0.4 ml of each compound per dispenser, control 4.3. How it is done: A selection of single plant compounds (A=(Z)-2-pentenol and B=(E)-2-hexenol) and combinations of plant compounds (C=A+B in ratio 1:1, D=A+methyl eugenol in ratio 1:1, and E=A+B+methyl eugenol in ratio 1:1:1) were tested in a strawberry field (Fragaria×ananassa ‘Tillamook’) for attraction of O. sulcatus. Choice of compounds and mixtures were based on identification of EAD-active compounds from headspace of weevil-damaged E. fortunei ‘Dart's Blanket’ plants and paraffin oil extract of the same Euonymus plant species combined with bioassay results with the EAD-active compounds alone and in several mixtures (Van Tol, unpublished). The compound (Z)-2-pentenol (purity 95%) was obtained from Bedoukian (Danbury, Conn., USA), (E)-2-hexenol (purity >96%) from Acros (Geel, Belgium) and methyl eugenol (purity >98%) from Sigma-Aldrich (St. Louis, Mo., USA). All chemicals were used without further purification. Single compounds and mixtures were introduced in dispensers prior to use and sealed. In each dispenser 0.4 ml of each compound was present.
Plant volatile dispensers were made of 1.5 ml LDPE Pasteur pipettes (Labo Scientific, Ede, the Netherlands). The compounds to be tested were introduced into the pipette, the tip of which was then sealed by heat. Prior to use, the tip of the pipette was cut off at 1 cm above the reservoir portion. […] The dispenser is a simple and cheap existing design which enables a high release profile especially for larger quantities of plant volatiles. […]
Experiments were performed on a commercial strawberry field in Oregon (USA). […] Traps and dispensers were placed in the fields and monitored for weevils' presence between May and August 2009. […] Traps and plants surrounding each trap-dispenser combination were monitored for weevils weekly. […]

The test system of experiment [2] is O. sulcatus. In words: Laboratory (olfactometer) and field tests of attraction. It is filed as in vivo, Otiorhynchus sulcatus. How it is done:
as §1
Experiments were performed on a commercial strawberry field in Oregon (USA). Five different treatments (A, B, C, D and E) and one control were tested in the field. The control consisted of an empty dispenser. […] Traps and dispensers were placed in the fields and monitored for weevils' presence between May and August 2009. […] Traps and plants surrounding each trap-dispenser combination were monitored for weevils weekly. […]

Turning to `C=C/C=C(\C)CCC=C(C)C` [DMNT], the “antennal (EAD) response” value in the experiment on O. sulcatus antenna is “EAD-positive”.
As for `CC/C=C\CCO` [(Z)-3-hexenol], the “antennal (EAD) response” value with O. sulcatus antenna was “EAD-active”.
As to `CC/C=C\CO` [Treatment A, (Z)-2-pentenol], in the experiment with O. sulcatus antenna, the “antennal (EAD) response” value is listed as “EAD-active”. For the same compound, in the experiment on O. sulcatus [1], the “attraction of O. sulcatus in strawberry (in words)” value is reported as “attractive” and the “number of weevils per replicate (O. sulcatus caught)” value is given as 11.3. In addition, in the experiment with O. sulcatus [2], the “attractive to O. sulcatus in laboratory and field tests (in words)” value is “attractive”.
With `CCC/C=C/CO` [Treatment B, (E)-2-hexenol], the “antennal (EAD) response” value with O. sulcatus antenna is “EAD-active”. Further, the “number of weevils per replicate (O. sulcatus caught)” value in the experiment on O. sulcatus [1] is reported as 4.3.

The values are drawn from US20110302823A1, “ATTRACTANT COMPOSITIONS FOR WEEVILS OF THE GENUS OT[…] USES THEREOF” (Stichting Dienst Landbouwkundig Onderzoek, priority 2010, published 2011).
